What was measured:
[1] = molecular target: T1, Tissue factor (Homo sapiens, UniProt P13726); assay: (§1) Inhibition of LPS-induced tissue factor procoagulant activity in human THP1 cells preincubated for 1 hr followed by LPS addition measured after 5 hrs using factor 10a chromogenic substrate in presence of prothrombin complex
[2] = molecular target: T1, Tissue factor; assay: ChEBML_1654816; description: as §1

T1 sequence (P13726 whole entry): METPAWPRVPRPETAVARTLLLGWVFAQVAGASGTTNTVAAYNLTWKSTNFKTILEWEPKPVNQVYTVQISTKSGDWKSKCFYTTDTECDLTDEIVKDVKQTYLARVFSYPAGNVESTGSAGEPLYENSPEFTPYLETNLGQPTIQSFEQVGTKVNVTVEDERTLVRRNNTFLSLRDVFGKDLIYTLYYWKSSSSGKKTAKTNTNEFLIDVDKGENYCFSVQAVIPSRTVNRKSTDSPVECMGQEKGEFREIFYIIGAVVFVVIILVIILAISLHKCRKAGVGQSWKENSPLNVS

| SMILES | IC50 [1] [nM] | IC50 [2] [nM] |
| --- | --- | --- |
| C=C(C)[C@@H]1CC[C@]2(C(=O)O[C@@H]3O[C@H](CO)[C@@H](O)[C@H](O)[C@H]3O)CC[C@]3(C)C(CC[C@@H]4[C@@]5(C)CC[C@H](O)[C@@](C)(CO)[C@@H]5CC[C@]43C)[C@H]12 (some centres undefined) | 0.028 | – |
| COc1cc(/C=C/C(=O)CC(=O)/C=C/c2ccc(O)c(OC)c2)ccc1O [CHEBI:3962] | – | 13 |
| CC1(C)CC[C@]2(C(=O)O)CC[C@]3(C)C(=CC[C@@H]4[C@@]5(C)CC[C@H](O)[C@@](C)(CO)[C@@H]5CC[C@]43C)[C@@H]2C1 [4-Epi-Hederagenin] | 0.221 | – |
| CC1(C)CC[C@]2(C(=O)O)[C@H](O)C[C@]3(C)C(=CC[C@@H]4[C@@]5(C)CC[C@H](O)C(C)(C)[C@@H]5CC[C@]43C)[C@@H]2C1 [CHEBI:4747] | – | 0.054 |
| C=C(C)[C@@H]1CC[C@]2(C(=O)O[C@@H]3O[C@H](CO)[C@@H](O)[C@H](O)[C@H]3O)CC[C@]3(C)C(CC[C@@H]4[C@@]5(C)CC[C@H](O)C(C)(C)[C@@H]5CC[C@]43C)[C@H]12 (some centres undefined) | 0.078 | – |
| C=C(C)[C@@H]1CC[C@]2(C(=O)O)CC[C@]3(C)C(CC[C@@H]4[C@@]5(C)CC[C@H](O)[C@@](C)(CO)[C@@H]5CC[C@]43C)[C@H]12 (some centres undefined) | 0.221 | – |
| CC1(C)CC[C@]2(C(=O)OCc3ccccc3)CC[C@]3(C)C(=CC[C@@H]4[C@@]5(C)CC[C@H](O)C(C)(C)[C@@H]5CC[C@]43C)[C@@H]2C1 [benzyl (4aS,6aS,6bR,8aR,10S,12aR,12bR,14bS)-10-hydroxy-2,2,6a,6b,9,9,12a-heptamethyl-1,3,4,5,6,7,8,8a,10,11,12,12b,13,14b-tetradecahydropicene-4a-carboxylate (Compound 4)] | 4.7 | – |
| CC1(C)CC[C@]2(C(=O)O)CC[C@]3(C)C(=CC[C@@H]4[C@@]5(C)CCC(=O)C(C)(C)[C@@H]5CC[C@]43C)[C@@H]2C1 [Oleanonic Acid] | 0.221 | – |
| CC1(C)CC[C@]2(C(=O)O)CC[C@]3(C)C(=CC[C@@H]4[C@@]5(C)CC[C@H](O)[C@](C)(CO)[C@@H]5CC[C@]43C)[C@@H]2C1 | 1.3 | – |

Second part, the compound after the results:

| IC50 [1] [nM] | IC50 [2] [nM] | SMILES |
| --- | --- | --- |
| 6.5 | – | CC1(C)CC[C@]2(C(=O)O[C@@H]3O[C@H](CO)[C@@H](O)[C@H](O)[C@H]3O)CC[C@]3(C)C(=CC[C@@H]4[C@@]5(C)CC[C@H](O)[C@](C)(CO)[C@@H]5CC[C@]43C)[C@@H]2C1 |
| 11 | – | CC1(C)CC[C@]2(C(=O)O[C@@H]3O[C@H](CO)[C@@H](O)[C@H](O)[C@H]3O)[C@H](O)C[C@]3(C)C(=CC[C@@H]4[C@@]5(C)CC[C@H](O)C(C)(C)[C@@H]5CC[C@]43C)[C@@H]2C1 |
| – | 0.28 | CC1(C)CC[C@]2(C(=O)O[C@@H]3O[C@H](CO)[C@@H](O)[C@H](O)[C@H]3O)CC[C@]3(C)C(=CC[C@@H]4[C@@]5(C)CC[C@H](O)[C@@](C)(CO)[C@@H]5CC[C@]43C)[C@@H]2C1 [CHEBI:67947] |
| – | 0.095 | CC1(C)CC[C@]2(C(=O)O)CC[C@]3(C)C(=CC[C@@H]4[C@@]5(C)CC[C@H](O[C@@H]6O[C@H](CO)[C@@H](O)[C@H](O)[C@H]6O)C(C)(C)[C@@H]5CC[C@]43C)[C@@H]2C1 [Vitalboside A] |
| – | 0.801 | CC1(C)CC[C@]2(C(=O)O[C@@H]3O[C@H](CO)[C@@H](O)[C@H](O)[C@H]3O)[C@H](O)C[C@]3(C)C(=CC[C@@H]4[C@@]5(C)CC[C@H](O)[C@](C)(CO)[C@@H]5CC[C@]43C)[C@@H]2C1 |
| 0.035 | – | CC1(C)CC[C@]2(C(=O)O[C@@H]3O[C@H](CO)[C@@H](O)[C@H](O)[C@H]3O)CC[C@]3(C)C(=CC[C@@H]4[C@@]5(C)CC[C@H](O)C(C)(C)[C@@H]5CC[C@]43C)[C@@H]2C1 [CHEBI:67985] |
| 9.6 | – | CC1(C)CC[C@]2(C(=O)O[C@@H]3O[C@H](CO)[C@@H](O)[C@H](O)[C@H]3O)[C@H](O)C[C@]3(C)C(=CC[C@@H]4[C@@]5(C)CC[C@H](O[C@@H]6O[C@H](CO)[C@@H](O)[C@H](O)[C@H]6O)C(C)(C)[C@@H]5CC[C@]43C)[C@@H]2C1 |
| 5 | – | CC1(C)CC[C@]2(C(=O)O)CC[C@]3(C)C(=CC[C@@H]4[C@@]5(C)CC[C@H](O)C(C)(C)[C@@H]5CC[C@]43C)[C@@H]2C1 [Oleanolic acid (OA)(Compound 1)] |
| – | 0.64 | C=C(C)[C@@H]1CC[C@]2(C(=O)O[C@@H]3O[C@H](CO)[C@@H](O)[C@H](O)[C@H]3O)CC[C@]3(C)C(CC[C@@H]4[C@@]5(C)CC[C@H](O[C@@H]6O[C@H](CO)[C@@H](O)[C@H](O)[C@H]6O)C(C)(C)[C@@H]5CC[C@]43C)[C@H]12 (some centres undefined) |
| 16 | – | CC1(C)CC[C@]2(C(=O)O[C@@H]3O[C@H](CO)[C@@H](O)[C@H](O)[C@H]3O)CC[C@]3(C)C(=CC[C@@H]4[C@@]5(C)CC[C@H](O[C@@H]6O[C@H](CO)[C@@H](O)[C@H](O)[C@H]6O)C(C)(C)[C@@H]5CC[C@]43C)[C@@H]2C1 |

From BindingDB's records for doi:10.1016/j.bmcl.2016.12.066 (China Pharmaceutical University, 2017)
